The test has as its target T1, PPARγ (Homo sapiens, UniProt P37231).
T1 construct: gene PPARG; GST-fused human PPARγ-LBD
T1 sequence (P37231 231-505 limits assumed): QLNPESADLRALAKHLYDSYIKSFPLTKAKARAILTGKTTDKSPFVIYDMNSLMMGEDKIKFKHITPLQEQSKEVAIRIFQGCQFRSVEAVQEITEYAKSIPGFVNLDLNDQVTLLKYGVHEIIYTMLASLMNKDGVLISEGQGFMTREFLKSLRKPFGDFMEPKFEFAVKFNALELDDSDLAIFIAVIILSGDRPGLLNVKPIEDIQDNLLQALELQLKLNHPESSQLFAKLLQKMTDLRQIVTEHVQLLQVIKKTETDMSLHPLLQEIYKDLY
The test can be described thus: LanthaScreen TR-FRET competitive binding assay (displacement of fluorescent PPAR ligand).

Regarding `O=C(NCc1ccncc1)c1ccc2c(ccn2Cc2ccc(C(F)(F)F)cc2)c1` [VSP-17], the affinity corresponds to a Ki of 0.27 µM.

The record behind these values is paper PMC6017286, “VSP-17, a New PPARγ Agonist, Suppresses the Metastasis of Triple-Negative Breast Cancer via Upregulating the Expression of E-Cadherin” (Molecules : A Journal of Synthetic Chemistry and Natural …, 2018).
